Experimental data from patent US6500624B1, “Kainate-binding, human CNS receptors of the EAA3 family” (NPS Allelix Corp., priority 1992, dated 2002).

Molecular target: T1, human EAA3a receptor (Homo sapiens, UniProt P39086)
T1 construct: To provide the entire coding region of the receptor; expressed in transfected cells; host or cells: COS-1 (monkey, ATCC CRL 1650), transient transfection with pcDNAIA/humEAA3a; membrane preparation
Test: NMDA binding to membranes of EAA3a-producing COS cells
Details: EAA3a-producing COS cell membranes

T1 sequence (P39086 31-905 isoform P39086-2 limits assumed): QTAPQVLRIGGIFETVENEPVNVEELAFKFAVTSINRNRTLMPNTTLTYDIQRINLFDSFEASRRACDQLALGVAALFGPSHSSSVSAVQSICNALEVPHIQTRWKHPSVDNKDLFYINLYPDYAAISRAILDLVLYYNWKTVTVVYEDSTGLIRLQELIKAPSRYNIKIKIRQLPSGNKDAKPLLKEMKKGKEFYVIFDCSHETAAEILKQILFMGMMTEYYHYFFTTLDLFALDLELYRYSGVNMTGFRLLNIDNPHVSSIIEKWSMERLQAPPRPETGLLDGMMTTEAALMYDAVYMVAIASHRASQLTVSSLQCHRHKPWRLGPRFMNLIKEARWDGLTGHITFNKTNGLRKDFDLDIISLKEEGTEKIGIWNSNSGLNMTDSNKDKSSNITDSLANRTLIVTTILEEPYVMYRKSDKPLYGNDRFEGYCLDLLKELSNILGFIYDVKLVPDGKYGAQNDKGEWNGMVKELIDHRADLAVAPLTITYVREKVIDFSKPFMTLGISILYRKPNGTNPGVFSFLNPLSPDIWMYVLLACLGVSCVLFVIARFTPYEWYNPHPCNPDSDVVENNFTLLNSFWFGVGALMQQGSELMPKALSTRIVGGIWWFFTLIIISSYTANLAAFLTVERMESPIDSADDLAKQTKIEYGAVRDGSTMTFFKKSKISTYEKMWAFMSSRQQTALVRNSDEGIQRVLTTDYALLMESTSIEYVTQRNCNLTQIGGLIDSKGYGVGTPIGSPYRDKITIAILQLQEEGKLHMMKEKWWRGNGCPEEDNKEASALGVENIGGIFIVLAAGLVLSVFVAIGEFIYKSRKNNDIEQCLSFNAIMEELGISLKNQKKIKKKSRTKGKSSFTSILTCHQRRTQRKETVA

SMILES: CN[C@H](CC(=O)O)C(=O)O [NMDA, N-methyl-D-aspartate]
- binding of NMDA: little or no demonstrable binding
